Experimental findings from patent US12673956B2, “Oxadiazolyl dihydropyrano[2,3-b]pyridine inhibitors of HIPK2 for treating kidney fibrosis” (ICAHN SCHOOL OF MEDICINE AT MOUNT SINAI, priority 2021, dated 2026) are described below.

Molecules are shown by their SMILES. Where two headings read alike, the source gives them in different places.

The subject of the assay is TGF/SMAD Signaling Pathway SBE Reporter—HEK293 Cell Line. Put plainly: Luciferase screen, TGF/SMAD SBE reporter HEK293 cells stimulated with TGFβ. The assay is classed as cell-based. The note with it: Homo sapiens. Here is the method:
For the data in Table 1, the Bight-Glo™ Luciferase Assay System from Promega was used with TGF/SMAD Signaling Pathway SBE Reporter—HEK293 Cell Line from BPSbioscience. On day 1 SBE reporter-HEK293 cells were seeded at a density of 25,000 cells per well into a white clear-bottom 96-well microplate in 100 μl of growth medium without geneticin. The plate was incubated at 37° C. in a CO2 incubator for 24 hrs. The wells were renewed with 60 μL assay medium and treated with test compounds by adding 5 μL of compounds in medium. The concentration of test compound in medium is adjusted so that 5 μL will provide the desired molarity of the solution. For example, if the desired test concentration is 30 µM, then 5 μL of […] compound is added. After 4 hours, TGFβ was added to 10 ng/mL. The plate was incubated at 37° C. in a CO2 incubator overnight (18 hours). One hour prior to assay all medium was replaced. The luciferase assay was run using ONE-Step™ Luciferase Assay System by adding 100 al of ONE-Step™ Luciferase reagent per well, rocking at room temperature for ~15 to 30 minutes and measuring luminescence using a luminometer. The signals were normalized to percentage inhibition, with non-TGF treated cells as 100% inhibition, and the data were processed by Graphpad Prism.

Where [1] appears, read: SBE reporter-HEK293 cells, TGFβ 10 ng/mL, 18 hours, read-out: Luciferase IC50.
Setting [2] is: HEK293, 18 h, read-out: Luciferase IC50 nM.

In general, IC50 refers to the midpoint of a concentration-inhibition curve. Regarding `Cn1ccc(-c2noc(-c3cnc4c(c3)C[C@H](O)C(C)(C)O4)n2)n1` [Example 18, (S)-2,2-dimethyl-6-(3-(1-methyl-1H-pyrazol-3-yl)-1,2,4-oxadiazol-5-yl)-3,4-dihydro-2H-pyrano[2,3-b]pyridin-3-ol], the IC50 under setting [1] worked out at 28 nM.
Consider `CC1(C)Oc2ncc(-c3nc(-c4ccc(Cl)c(F)c4)no3)cc2C[C@@H]1O` [Example 34, (S)-6-(3-(4-chloro-3-fluorophenyl)-1,2,4-oxadiazol-5-yl)-2,2-dimethyl-3,4-dihydro-2H-pyrano[2,3-b]pyridin-3-ol], for which the IC50 under setting [2] amounted to 39 nM.
Same read-out and setting: next, `CC1(C)Oc2ncc(-c3nc(-c4ncco4)no3)cc2C[C@@H]1O` [Example 32, (S)-2,2-dimethyl-6-(3-(oxazol-2-yl)-1,2,4-oxadiazol-5-yl)-3,4-dihydro-2H-pyrano[2,3-b]pyridin-3-ol]: 65 nM; `CC1(C)Oc2ncc(-c3nc(-c4ccc(Br)cc4)no3)cc2[C@@H](O)[C@@H]1O` [Example 9, (3S,4R)-6-(3-(4-bromophenyl)-1,2,4-oxadiazol-5-yl)-2,2-dimethyl-3,4-dihydro-2H-pyrano[2,3-b]pyridine-3,4-diol]: 2420 nM.
For `Cc1ccc(-c2noc(-c3cnc4c(c3)C[C@H](O)C(C)(C)O4)n2)cc1` [Example 21, (S)-2,2-dimethyl-6-(3-p-tolyl-1,2,4-oxadiazol-5-yl)-3,4-dihydro-2H-pyrano[2,3-b]pyridin-3-ol], the IC50 under setting [2] amounted to 17 nM.
For the compound `CC1(C)Oc2ncc(-c3nc(-c4nc(Cl)cs4)no3)cc2C[C@@H]1O` [Example 28, (S)-6-(3-(4-chlorothiazol-2-yl)-1,2,4-oxadiazol-5-yl)-2,2-dimethyl-3,4-dihydro-2H-pyrano[2,3-b]pyridin-3-ol], the IC50 under setting [2] is 13 nM.
Turning to `CC1(C)Oc2ncc(-c3nc(-c4ccc(Br)cc4)no3)cc2C(N)C1O` (stereo not drawn) [Example 2, 4-amino-6-(3-(4-bromophenyl)-1,2,4-oxadiazol-5-yl)-2,2-dimethyl-3,4-dihydro-2H-pyrano[2,3-b]pyridin-3-ol], the IC50 under setting [2] was determined as 8150 nM.
As to `CC1(C)CC(O)c2cc(-c3nc(-c4ccc(Br)cc4)no3)cnc2O1` (stereo not drawn) [Example 5, 6-(3-(4-bromophenyl)-1,2,4-oxadiazol-5-yl)-2,2-dimethyl-3,4-dihydro-2H-pyrano[2,3-b]pyridin-4-ol], under setting [1], the IC50 turned out to be 86 nM.
On to `CC1(C)Oc2ncc(-c3nc(-c4cccc(F)c4)no3)cc2C[C@H]1O` [Example 38, (R)-6-(3-(3-fluorophenyl)-1,2,4-oxadiazol-5-yl)-2,2-dimethyl-3,4-dihydro-2H-pyrano[2,3-b]pyridin-3-ol], for which the IC50 under setting [1] worked out at 148 nM.
With `CC1(C)Oc2ncc(-c3nc(-c4cccc(Cl)c4)no3)cc2C[C@H]1O` [Example 31, (R)-6-(3-(3-chlorophenyl)-1,2,4-oxadiazol-5-yl)-2,2-dimethyl-3,4-dihydro-2H-pyrano[2,3-b]pyridin-3-ol], the IC50 under setting [1] was 152 nM.
Turning to `CC1(C)Oc2ncc(-c3nc(-c4nc(Cl)cs4)no3)cc2C[C@H]1O` [Example 27, (R)-6-(3-(4-chlorothiazol-2-yl)-1,2,4-oxadiazol-5-yl)-2,2-dimethyl-3,4-dihydro-2H-pyrano[2,3-b]pyridin-3-ol], under setting [1], the IC50 turned out to be 705 nM.
In the case of `CC1(C)Oc2ncc(-c3nc(-c4nccs4)no3)cc2CC1O` (stereo in doubt) [Example 16, (S)-2,2-dimethyl-6-(3-(thiazol-2-yl)-1,2,4-oxadiazol-5-yl)-3,4-dihydro-2H-pyrano[2,3-b]pyridin-3-ol], under setting [1], the IC50 amounted to 1110 nM.
Still for that read-out and setting: for `CC1(C)C[C@H](O)c2cc(-c3nc(-c4ccc(Br)cc4)no3)cnc2O1` (single isomer, unassigned) [Example 11] the value was 57 nM.
On the same count and under the same terms, next, `CC1(C)Oc2ncc(-c3nc(-c4cccc(Cl)c4)no3)cc2C[C@@H]1O` [Example 30, (S)-6-(3-(3-chlorophenyl)-1,2,4-oxadiazol-5-yl)-2,2-dimethyl-3,4-dihydro-2H-pyrano[2,3-b]pyridin-3-ol]: 136 nM; `CC1(C)Oc2ncc(-c3nc(-c4nccs4)no3)cc2CC1O` (stereo in doubt) [Example 14, (R)-2,2-dimethyl-6-(3-(thiazol-2-yl)-1,2,4-oxadiazol-5-yl)-3,4-dihydro-2H-pyrano[2,3-b]pyridin-3-ol]: 1370 nM.
Still for that read-out and setting: for `CC1(C)Oc2ncc(-c3nc(-c4ncc(Cl)s4)no3)cc2C[C@H]1O` [Example 25, (R)-6-(3-(5-chlorothiazol-2-yl)-1,2,4-oxadiazol-5-yl)-2,2-dimethyl-3,4-dihydro-2H-pyrano[2,3-b]pyridin-3-ol] the value was 206 nM.
On to `CC1(C)Oc2ncc(-c3nc(-c4ncco4)no3)cc2C[C@H]1O` [Example 33, (3R)-2,2-dimethyl-6-(3-oxazol-2-yl-1,2,4-oxadiazol-5-yl)-3,4-dihydropyrano[2,3-b]pyridin-3-ol], for which the IC50 under setting [2] is 76 nM.
Turning to `C[C@H]1CCc2cc(-c3nc(-c4ccc(Br)cc4)no3)cnc2O1` [Example 3], under setting [1], the IC50 was 234 nM.
Still for that read-out and setting: next, `Cc1cnc(-c2noc(-c3cnc4c(c3)C[C@@H](O)C(C)(C)O4)n2)s1` [Example 26, (R)-2,2-dimethyl-6-(3-(5-methylthiazol-2-yl)-1,2,4-oxadiazol-5-yl)-3,4-dihydro-2H-pyrano[2,3-b]pyridin-3-ol]: 708 nM.
Regarding `CC1(C)Oc2ncc(-c3nc(-c4ccc(Br)cc4)no3)cc2C[C@@H]1O` [Example 7, (S)-6-(3-(4-bromophenyl)-1,2,4-oxadiazol-5-yl)-2,2-dimethyl-3,4-dihydro-2H-pyrano[2,3-b]pyridin-3-ol], the IC50 under setting [2] amounted to 37 nM.
Consider `CC1(C)Oc2ncc(-c3nc(-c4ccc(Cl)c(Cl)c4)no3)cc2C[C@@H]1O` [Example 22, (S)-6-(3-(3,4-dichlorophenyl)-1,2,4-oxadiazol-5-yl)-2,2-dimethyl-3,4-dihydro-2H-pyrano[2,3-b]pyridin-3-ol], for which the IC50 under setting [2] worked out at 43 nM.
As for `C[C@@H]1CCc2cc(-c3nc(-c4ccc(Br)cc4)no3)cnc2O1` [Example 4, ethyl (R)-6-(3-(4-bromophenyl)-1,2,4-oxadiazol-5-yl)-2-methyl-3,4-dihydro-2H-pyrano[2,3-b]pyridine], under setting [1], the IC50 was determined as 126 nM.
Still for that read-out and setting: for `Cc1cnc(-c2noc(-c3cnc4c(c3)C[C@H](O)C(C)(C)O4)n2)s1` [Example 24, (S)-2,2-dimethyl-6-(3-(5-methylthiazol-2-yl)-1,2,4-oxadiazol-5-yl)-3,4-dihydro-2H-pyrano[2,3-b]pyridin-3-ol] the value was 822 nM; for `CO[C@H]1Cc2cc(-c3nc(-c4ccc(Cl)cc4)no3)cnc2OC1(C)C` [Example 19, (S)-6-(3-(4-chlorophenyl)-1,2,4-oxadiazol-5-yl)-3-methoxy-2,2-dimethyl-3,4-dihydro-2H-pyrano[2,3-b]pyridine], 340 nM.
`CC1(C)Oc2ncc(-c3nc(-c4ccc(Br)cc4)no3)cc2[C@H](O)[C@H]1O` [Example 8, (3R,4S)-6-(3-(4-bromophenyl)-1,2,4-oxadiazol-5-yl)-2,2-dimethyl-3,4-dihydro-2H-pyrano[2,3-b]pyridine-3,4-diol]: the IC50 under setting [2] turned out to be 11300 nM.
Turning to `CC1(C)Oc2ncc(-c3nc(-c4ccc(Cl)c(F)c4)no3)cc2CC1O` (stereo in doubt) [Example 35, (S)-6-(3-(4-chloro-3-fluorophenyl)-1,2,4-oxadiazol-5-yl)-2,2-dimethyl-3,4-dihydro-2H-pyrano[2,3-b]pyridin-3-ol], under setting [2], the IC50 is 22 nM.
Turning to `CC1(C)Oc2ncc(-c3nc(-c4cc(Cl)cc(Cl)c4)no3)cc2C[C@H]1O` [Example 40, (R)-6-(3-(3,5-dichlorophenyl)-1,2,4-oxadiazol-5-yl)-2,2-dimethyl-3,4-dihydro-2H-pyrano[2,3-b]pyridin-3-ol], the IC50 under setting [1] is 843 nM.
On the same count and under the same terms, for `Cn1ccc(-c2noc(-c3cnc4c(c3)C[C@@H](O)C(C)(C)O4)n2)n1` [Example 17, (R)-2,2-dimethyl-6-(3-(1-methyl-1H-pyrazol-3-yl)-1,2,4-oxadiazol-5-yl)-3,4-dihydro-2H-pyrano[2,3-b]pyridin-3-ol] the value was 18 nM.
On the same count and under the same terms, next, `CC1(C)C[C@@H](O)c2cc(-c3nc(-c4ccc(Br)cc4)no3)cnc2O1` (single isomer, unassigned) [Example 10]: 233 nM.
In the case of `CC1(C)Oc2ncc(-c3nc(-c4ccc(F)cc4)no3)cc2C[C@@H]1O` [Example 20, (S)-6-(3-(4-fluorophenyl)-1,2,4-oxadiazol-5-yl)-2,2-dimethyl-3,4-dihydro-2H-pyrano[2,3-b]pyridin-3-ol], under setting [1], the IC50 was found to be 223 nM.
For the compound `Cc1cc(-c2noc(-c3cnc4c(c3)C[C@@H](O)C(C)(C)O4)n2)ccc1Cl` [Example 37, (3R)-6-[3-(4-chloro-3-methyl-phenyl)-1,2,4-oxadiazol-5-yl]-2,2-dimethyl-3,4-dihydropyrano[2,3-b]pyridin-3-ol], the IC50 under setting [1] turned out to be 50 nM.
The same measure, in the same setting: next, `CC1(C)Oc2ncc(-c3nc(-c4ccc(Cl)cc4)no3)cc2CC1O` (stereo in doubt) [Example 12, (R)-6-(3-(4-chlorophenyl)-1,2,4-oxadiazol-5-yl)-2,2-dimethyl-3,4-dihydro-2H-pyrano[2,3-b]pyridin-3-ol]: 89 nM.
For the compound `CC1(C)Oc2ncc(-c3nc(-c4ncc(Cl)s4)no3)cc2C[C@@H]1O` [Example 23, (S)-6-(3-(5-chlorothiazol-2-yl)-1,2,4-oxadiazol-5-yl)-2,2-dimethyl-3,4-dihydro-2H-pyrano[2,3-b]pyridin-3-ol], the IC50 under setting [1] was 242 nM.
